Data: ChEMBL document CHEMBL1151515, “Attempts to introduce chemotherapeutic nucleotides into cells: studies on the anti-HIV agent FDT” (Bioorg Med Chem Lett, 1991)

Key:
[1] = system: T-cell line; test: Tested for its effective dose required to inhibit the replication of HIV-1 in human T-cell line; assay type: functional; conditions: read-out: ED50 (the source's name)
[2] = Tested for the cytotoxicity against HIV-1 in human T-cell line; assay type: cell-based; conditions: read-out: TD50 (the source's name)

EC50 [1] [µM]	Structure (SMILES)	CC50 [2] [µM]
0.3	COC(=O)C(NP(=O)(OCC1OC(n2cc(C)c(=O)[nH]c2=O)CC1F)OCC(Cl)(Cl)Cl)C(C)C (stereo not given)	> 100
0.005	Cc1cn([C@H]2C[C@H](F)[C@@H](CO)O2)c(=O)[nH]c1=O [ALOVUDINE]	100
5	COC(=O)C(Cc1ccccc1)NP(=O)(NC(Cc1ccccc1)C(=O)OC)OCC1OC(n2cc(C)c(=O)[nH]c2=O)CC1F (stereo not given)	> 100
0.3	COC(=O)C(C)NP(=O)(OCC1OC(n2cc(C)c(=O)[nH]c2=O)CC1F)OCC(Cl)(Cl)Cl (stereo not given)	> 100
0.01	Cc1cn(C2CC(F)C(COP(=O)(OCC(Cl)(Cl)Cl)OCC(Cl)(Cl)Cl)O2)c(=O)[nH]c1=O (stereo not given)	100
